One data set deals with T1, cyclin D1/cdk 4 enzyme (Homo sapiens, UniProt P11802).
T1 construct: made in house; host or cells: Sf9 insect cells, recombinant baculovirus
In words: CDK4 ELISA kinase assay (phospho-Rb ser 795 detection). The data set is classed as biochemical. Conditions: In Vitro Enzyme Assays, 200 μM ATP, read-out: CDK4 IC50. In outline: (§1)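 Sf9-derived cyclin/CDK, 200 μM ATP, immobilized GST-Rb; 30° C/1 h. Detection: phospho-Ser795 Ab, HRP, TMB, OD450.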
In general terms: An ELISA detects its analyte on a solid surface through an enzyme-linked reagent.

The test system of the next data set is BT474. In words: Cytotoxicity assay (SRB), BT474. The note with it: BT474 cells, SRB, 6 days; read-out: In Vitro Cellular Activity IC50 BT474. The data set is classed as cell-based. In a few lines:
(§2)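 Protein staining with sulforhodamine B after cold TCA fixation served as the survival endpoint (A540, relative to untreated cells). Before staining, cells were incubated with compound at 37 °C, 7% CO2 for 3 days, or 6 days for BT474.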

Another data set addresses T2, cyclin B/CDK1 enzyme (Homo sapiens, UniProt P06493).
T2 construct: purchased New England BioLabs; host or cells: Sf9 insect cells, recombinant baculovirus
In words: CDK1 ELISA kinase assay (phospho-Rb ser 795 detection). The data set is classed as biochemical. The note with it: In Vitro Enzyme Assays, read-out: CDK1 IC50. In outline: as §1

A further data set concerns the target T3, cyclin E/CDK2 enzyme (Homo sapiens, UniProt P24941).
T3 construct: made in house; host or cells: Sf9 insect cells, recombinant baculovirus
In words: CDK2 ELISA kinase assay (phospho-Rb ser 795 detection). It counts as biochemical. Conditions: In Vitro Enzyme Assays, read-out: CDK2 IC50. In outline: as §1

A further data set concerns MCF-7. In words: Cytotoxicity assay (SRB), MCF-7. The note with it: MCF-7 cells, SRB, three days; read-out: In Vitro Cellular Activity IC50 MCF-7. The data set is classed as cell-based. In outline:
as §2

The next data set relates to LoVo. In words: Cytotoxicity assay (SRB), LoVo. The note with it: LoVo cells, SRB, three days; read-out: In Vitro Cellular Activity IC50 LOVO. It counts as cell-based. In a few lines: as §2
In a further data set the test system is HCT-116. As to the kind of experiment: Cytotoxicity assay (SRB), HCT-116. It counts as cell-based. The note with it: HCT116 cells, SRB, three days; read-out: In Vitro Cellular Activity IC50 HCT116. In a few lines:
as §2

Counter-ions that a name gives are not always drawn.

For 24 compounds, melting point and IC50 results are on record in patent US7713994B2 (Wyeth LLC, priority 2005, dated 2010).

What is called melting point is the temperature of the solid-liquid transition. What is called IC50 is the point on the concentration scale where inhibition reaches its midpoint.

T2 sequence (P06493 whole entry): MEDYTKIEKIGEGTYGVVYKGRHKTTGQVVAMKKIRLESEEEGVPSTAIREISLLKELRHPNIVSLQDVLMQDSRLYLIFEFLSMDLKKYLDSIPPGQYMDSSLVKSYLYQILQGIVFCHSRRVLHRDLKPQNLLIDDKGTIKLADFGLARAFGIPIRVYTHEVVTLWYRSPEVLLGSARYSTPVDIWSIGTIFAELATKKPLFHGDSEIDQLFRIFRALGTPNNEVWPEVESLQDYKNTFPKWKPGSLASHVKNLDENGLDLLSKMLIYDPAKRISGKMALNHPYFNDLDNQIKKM
T2 sequence (P14635 whole entry partner): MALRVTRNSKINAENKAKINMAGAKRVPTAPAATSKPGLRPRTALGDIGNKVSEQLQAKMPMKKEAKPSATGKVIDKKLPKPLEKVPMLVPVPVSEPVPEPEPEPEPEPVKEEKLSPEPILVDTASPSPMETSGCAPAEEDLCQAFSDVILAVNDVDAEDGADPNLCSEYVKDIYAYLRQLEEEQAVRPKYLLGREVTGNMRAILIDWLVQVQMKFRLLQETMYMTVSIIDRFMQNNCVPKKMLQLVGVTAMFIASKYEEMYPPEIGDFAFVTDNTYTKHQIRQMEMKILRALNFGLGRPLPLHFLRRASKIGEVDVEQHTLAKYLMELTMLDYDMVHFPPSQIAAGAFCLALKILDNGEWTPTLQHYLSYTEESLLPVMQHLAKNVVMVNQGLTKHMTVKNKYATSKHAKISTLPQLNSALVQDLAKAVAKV
T1 sequence (P11802 whole entry, species assumed): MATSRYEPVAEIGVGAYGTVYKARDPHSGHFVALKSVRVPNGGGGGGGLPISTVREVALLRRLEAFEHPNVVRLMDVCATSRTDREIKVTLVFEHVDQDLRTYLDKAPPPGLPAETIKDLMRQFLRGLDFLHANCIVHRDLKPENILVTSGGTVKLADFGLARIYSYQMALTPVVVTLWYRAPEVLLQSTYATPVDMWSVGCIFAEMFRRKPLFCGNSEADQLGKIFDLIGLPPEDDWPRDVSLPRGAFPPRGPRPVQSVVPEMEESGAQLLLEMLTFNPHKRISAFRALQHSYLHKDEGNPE
T1 sequence (P24385 whole entry partner, species assumed): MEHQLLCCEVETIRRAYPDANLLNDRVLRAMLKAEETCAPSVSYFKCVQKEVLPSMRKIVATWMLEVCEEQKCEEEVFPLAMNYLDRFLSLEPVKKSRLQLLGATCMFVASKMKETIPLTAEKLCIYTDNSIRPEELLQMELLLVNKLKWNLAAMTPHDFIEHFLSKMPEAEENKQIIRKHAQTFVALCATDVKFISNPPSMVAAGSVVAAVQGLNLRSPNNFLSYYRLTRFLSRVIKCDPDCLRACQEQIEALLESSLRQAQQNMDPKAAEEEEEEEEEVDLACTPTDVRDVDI

On to `CN1CCN(c2ccc(N/C=C3\C(=O)NC(=O)c4ccccc43)cc2)CC1`, for which the melting point fell in the range of 245 to 246 °C.
The same measure, in the same setting: as for `CN1CCN(CCCNC=C2C(=O)NC(=O)c3ccc(-n4cccc4)cc32)CC1` (as salt: TFA) [Example 279, 4-{[3-(4-Methyl-piperazin-1-yl)-propylamino]-methylene}-6-pyrrol-1-yl-4H-isoquinoline-1,3-dione], the figure is 207 to 210 °C; as for `COc1ccc(CN/C=C2\C(=O)NC(=O)c3ccc(Cl)cc32)cc1O` (as salt: hydrochloride) [Example 67, (4Z)-6-Chloro-4-{[(3-hydroxy-4-methoxybenzyl)amino]methylene}isoquinoline-1,3(2H,4H)-dione], 265 to 266 °C.
Consider `COc1ccc(CN/C=C2\C(=O)NC(=O)c3ccc(I)cc32)cc1O` (as salt: hydrochloride) [Example 80, (4Z)-6-Iodo-4-{[(3-hydroxy-4-methoxybenzyl)amino]methylene}isoquinoline-1,3(2H,4H)-dione], for which the melting point was 209 to 210 °C.
`COc1ccc(CN/C=C2\C(=O)NC(=O)c3ccc(-c4ccsc4)cc32)cc1O` (as salt: hydrochloride) [Example 88, (4Z)-4-{[(3-Hydroxy-4-methoxybenzyl)amino]methylene}-6-thien-3-ylisoquinoline-1,3(2H,4H)-dione]: the melting point lay within 219 to 220 °C.
As to `COc1ccc(CN/C=C2\C(=O)NC(=O)c3ccccc32)cc1O` (as salt: hydrochloride) [Example 98, (4Z)-4-{[(3-Hydroxy-4-methoxybenzyl)amino]methylene}isoquinoline-1,3(2H,4H)-dione], the melting point lay within 192 to 193 °C.
`O=C1NC(=O)c2ccc(Br)cc2/C1=C/NCc1ccc(OCCO)c(O)c1` (as salt: potassium) [Example 139, (4Z)-6-Bromo-4-({[3-hydroxy-4-(2-hydroxyethoxy)benzyl]amino}methylene)isoquinoline-1,3(2H,4H)-dione] displayed a melting point of 166 to 167 °C.
`CC(=O)Nc1ccc(CN/C=C2\C(=O)NC(=O)c3ccc(I)cc32)cc1O` (as salt: potassium) [Example 151, N-[2-Hydroxy-4-({[(Z)-(6-iodo-1,3-dioxo-2,3-dihydroisoquinolin-4(1H)-′ylidene)methyl]amino}methyl)phenyl]acetamide]: the melting point was in the range of 345 to 346 °C.
Same read-out and setting: under `CCCOc1ccc(CN/C=C2\C(=O)NC(=O)c3ccc(-c4cccc(F)c4)cc32)cc1O` (as salt: sodium) [Example 193, (4Z)-6-(3-Fluorophenyl)-4-{[(3-hydroxy-4-propoxybenzyl)amino]methylene}-isoquinoline-1,3(2H,4H)-dione] stands 209 to 210 °C; under `CCCOc1ccc(CN/C=C2\C(=O)NC(=O)c3ccc(-c4ccc(F)c(F)c4)cc32)cc1O` (as salt: sodium) [Example 194, (4Z)-6-(3,4-Difluorophenyl)-4-{[(3-hydroxy-4-propoxybenzyl)amino]methylene}-isoquinoline-1,3(2H,4H)-dione], 227 to 228 °C.
Turning to `C[C@@H]1CN(c2ccc(N/C=C3\C(=O)NC(=O)c4ccc(-c5ccc(F)cc5)cc43)cc2)C[C@H](C)N1` (as salt: sodium) [Example 205, (4Z)-4-({[4-(3,5-Dimethylpiperazin-1-yl)phenyl]amino}methylene)-6-(4-fluorophenyl)-isoquinoline-1,3(2H,4H)-dione], the melting point lay within 193 to 194 °C.
With `C[C@@H]1CN(c2ccc(N/C=C3\C(=O)NC(=O)c4ccc(-c5ccsc5)cc43)cc2)C[C@H](C)N1` (as salt: sodium) [Example 206, (4Z)-4-({[4-(3,5-Dimethylpiperazin-1-yl)phenyl]amino}methylene)-6-thien-3-ylisoquinoline-1,3(2H,4H)-dione], the melting point lay within 164 to 165 °C.
Compound `C[C@@H]1CN(c2ccc(N/C=C3\C(=O)NC(=O)c4ccc(-c5ccoc5)cc43)cc2)C[C@H](C)N1` (as salt: sodium) [Example 207, (4Z)-4-({[4-(3,5-Dimethylpiperazin-1-yl)phenyl]amino}methylene)-6-(3-furyl)iso-quinoline-1,3(2H,4H)-dione] yielded a melting point of 199 to 200 °C.
The same measure, in the same setting: under `COc1ccc(CN/C=C2\C(=O)NC(=O)c3ccc(-c4ccc(F)cc4)cc32)cc1O` (as salt: sodium) [Example 208, (4Z)-6-(4-Fluorophenyl)-4-{[(3-hydroxy-4-methoxybenzyl)amino]methylene}iso-quinoline-1,3(2H,4H)-dione] stands 239 to 240 °C.
Take `COc1ccc(CN/C=C2\C(=O)NC(=O)c3ccc(-c4cccc(F)c4)cc32)cc1O` (as salt: sodium) [Example 209, (4Z)-6-(3-Fluorophenyl)-4-{[(3-hydroxy-4-methoxybenzyl)amino]methylene}iso-quinoline-1,3(2H,4H)-dione]: the melting point was in the range of 204 to 205 °C.
The same measure, in the same setting: as for `CN1CCN(c2ccc(N/C=C3\C(=O)NC(=O)c4ccc(-c5ccoc5)cc43)cc2)CC1` (as salt: sodium) [Example 236, (4Z)-6-(3-Furyl)-4-({[4-(4-methylpiperazin-1-yl)phenyl]amino}methylene)isoquinoline-1,3(2H,4H)-dione], the figure is 190 to 191 °C; as for `CN1CCN(c2ccc(N/C=C3\C(=O)NC(=O)c4ccc(-c5ccc(F)cc5)cc43)cc2)CC1` (as salt: sodium) [Example 263, (4Z)-6-(4-Fluorophenyl)-4-({[4-(4-methylpiperazin-1-yl)phenyl]amino}methylene)-isoquinoline-1,3(2H,4H)-dione], 228 to 229 °C.
Still for that read-out and setting: under `O=C1NC(=O)c2ccc(-c3ccsc3)cc2/C1=C/Nc1ccc(CN2CCCCC2)cc1` (hydrate or solvate) [Example 104, (4Z)-4-({[4-(Piperidin-1-ylmethyl)phenyl]amino}methylene)-6-thien-3-ylisoquinoline-1,3(2H,4H)-dione] stands 166 to 167 °C; under `COc1ccc(-c2ccc3c(c2)/C(=C/Nc2ccc(N4CCN(C)CC4)cc2)C(=O)NC3=O)cc1` (hydrate or solvate) [Example 114, (4Z)-6-(4-methoxyphenyl)-4-({[4-(4-methylpiperazin-1-yl)phenyl]amino}methylene)-isoquinoline-1,3(2H,4H)-dione], 224 to 225 °C.
The same measure, in the same setting: under `CN1CCN(c2ccc(N/C=C3\C(=O)NC(=O)c4ccc(-c5ccc(C=O)cc5)cc43)cc2)CC1` (hydrate or solvate) [Example 115, 4-[(4Z)-4-({[4-(4-Methylpiperazin-1-yl)phenyl]amino}methylene)-1,3-dioxo-1,2,3,4-tetra-hydroisoquinolin-6-yl]benzaldehyde] stands 152 to 153 °C.
“(4Z)-4-{[(3-Hydroxy-4-propoxybenzyl)amino]methylene}-6-thiene-3-ylisoquinoline-,3(2H,4H)-dione [Example 183]”: the IC50 on cyclin D1/cdk 4 enzyme was 0.11 µM; with BT474 it was 13 µM; on cyclin B/CDK1 enzyme, above 50 µM; on cyclin E/CDK2 enzyme it was above 50 µM; in the data set with MCF-7, 8.8 µM; with LoVo, 12 µM. The IC50 in the data set with HCT-116 was 8.4 µM.
“(4Z)-6-Piperidin-1-yl-4-({[4-(methylPiperzin-1-yl)phenyl]amino}methylene)isoquinoline-1,3(2H,4H)-dione [Example 119]”: the IC50 on cyclin D1/cdk 4 enzyme is 1.62 µM; in the data set on BT474, 7.5 µM; at cyclin B/CDK1 enzyme it was above 50 µM; on cyclin E/CDK2 enzyme, above 50 µM; in the data set with MCF-7 it was 6.2 µM; in the data set with LoVo, 7.3 µM. Further, the IC50 in the data set on HCT-116 worked out at 3.3 µM.
For the compound “PEG5000thio-acetic acid 5-{[(6-bromo-1,3-dioxo-2,3-dihydro-1H-isoquinolin-4-ylidenemethyl)-amino]-methyl}-2-propoxy-phenyl ester [Example 228]”, the 50% inhibitory concentration (IC50) was around 1.5 µM on cyclin D1/cdk 4 enzyme; around 1.2 µM in the data set with BT474; above 50 µM at cyclin B/CDK1 enzyme; above 50 µM on cyclin E/CDK2 enzyme; around 8.6 µM in the data set on MCF-7; around 2.5 µM with LoVo. In addition, the half-maximal inhibitory concentration (IC50) in the data set with HCT-116 was around 2.1 µM.
In the case of “PEG5000thio-acetic acid 5-{[(6-iodo-1,3-dioxo-2,3-dihydro-1H-isoquinolin-4-ylidenemethyl)-amino]-methyl}-2-propoxy-phenyl ester [Example 292]”, the 50% inhibitory concentration (IC50) at cyclin D1/cdk 4 enzyme was around 1.5 µM; with BT474 it was around 0.9 µM; on cyclin B/CDK1 enzyme, around 19.7 µM; on cyclin E/CDK2 enzyme, around 33.9 µM; in the data set with MCF-7, around 6.5 µM; with LoVo, around 1.2 µM. Moreover, the 50% inhibitory concentration (IC50) with HCT-116 was around 1.2 µM.
